Our source for the melting point values is a melting point compilation (Tetko et al.; mined from patent text by program, amines drawn as free bases though some values may be those of a salt).

Residues, ends and D or L forms follow the SMILES beside them. *: point of attachment. Cbz = O=C(OCc1ccccc1)*

As a reminder, the melting point is the temperature of the solid-liquid transition. `CCOC(=O)COc1ccc(S(=O)(=O)CCNS(=O)(=O)c2ccccc2)cc1` showed a melting point of 86.5 to 88 °C.
Under `CC(C)(C)c1cc(NC(=O)Nc2cccc(Cl)c2Cl)c(-c2ccncc2)o1` stands 195 to 198 °C.
Turning to `COC(=O)N(Cc1ccccc1)[C@H]1CC[C@H](c2ccc(O)cc2)CC1`, the melting point is 61 to 66 °C.
Under `Sc1nc2cc(C(c3ccccc3)n3ccnc3)ccc2[nH]1` (stereo unspecified) stands 260 °C; under `CC(C)CCCC(C)NC(=O)CCC(=NNC(N)=S)c1ccccc1` (stereo unspecified), 58 to 65 °C.
Under `Cn1nnnc1SCCCC(=O)c1ccccc1` stands 57.5 to 58 °C.
In turn, `O=c1cc(Sc2ccccc2)cc[nH]1` had a melting point of 202 °C.
The same measure for `Cc1nnc(-c2ccc3ncn(-c4cccc(C(F)(F)F)c4)c3c2)o1`: 212 to 213 °C; for `CCN1C(=O)N(SC(Cl)(Cl)Cl)C(=O)C1(C)C`: 141 to 142 °C.
Under `Cc1cc(CN2CCN(C)CC2)cc2c1Cc1c(-c3ccsc3)n[nH]c1-2` stands 235 to 236 °C; under `CCOCN1C(C)=C(C(=O)OCC)C(c2cccc([N+](=O)[O-])c2)C(C(=O)OCCBr)=C1C` (stereo unspecified), 102 to 104 °C.
Under `NCC1Cc2cc(C(F)(F)F)cc(-c3cccc(Cl)c3Cl)c2O1` (stereo unspecified) stands 152 to 155 °C; under `CC(C)(C)OC(=O)N[C@@H](CC(=O)O)C(=O)OC(C)(C)C`, 97 to 99 °C.
On to `CSCCOc1ccccc1NN`, for which the melting point lay within 72.5 to 74.5 °C.
On to `O=C1c2cc([N+](=O)[O-])ccc2OC12CC2`, for which the melting point lay within 107 to 110 °C.
Under `CC(C)(C)OC(=O)N1CCc2c(n(CCO)c3cc(Cl)cc(Cl)c23)CC1` stands 166 to 167 °C.
The same measure for `CC(C)c1ccc2c(c1)CCC1C(C)(C(=O)O)CCCC21C` (stereo unspecified): 168 to 170 °C; for `CCCC/C=C/C(=O)N(C)c1ccc(S(=O)(=O)NC2CCCCCC2)cc1`: 114 °C.
Molecule `CCOC(=O)N1CCc2nc3ccc(N)cc3c(C)c2CC1` returned a melting point of 214 to 216 °C.
Under `CCSC1c2cccc(O)c2C(=O)c2c(O)cccc21` stands 117 to 118 °C.
The same measure for `Cc1cc(N2C(=O)NC(C)(C)C2=O)ccc1[N+](=O)[O-]`: 177 to 178 °C; for `NC(=O)c1cccc(-c2cccc3oc(Cc4cccc(C(F)(F)F)c4)cc23)c1`: 159 to 160 °C.
The same measure for `CCOCCOc1nc(NC(C)=O)nc2ccc(Cl)nc12`: 185 °C.
`N#CS/C=C\C(=O)Oc1ccccc1`: the melting point is 79 to 83 °C.
Under `CN1CCN(CCC2C(=O)NC(c3ccc(Cl)cc3)c3ccccc32)CC1` (stereo unspecified) stands 201 to 205 °C.
`CCSc1nc2c(C)ccnc2n1Cc1ccc(-n2cc(Cl)cc2-c2nnn[nH]2)cc1` registered a melting point of 88 to 90 °C.
For the molecule `C=CCN(NC(=O)c1ccc(Cl)c(S(N)(=O)=O)c1)c1ccccc1`, the melting point lay in the range of 99 to 101 °C.
Under `COc1ccc(C2CCCCC2)cc1-c1csc(NC(=O)N2CCN(C3CCN(S(=O)(=O)C4CC4)CC3)CC2)n1` stands 138 °C.
With `CCOC(=O)c1cnc2c(c(C)nc3ccnn32)c1O`, the melting point lay in the range of 190 to 192 °C.
The same measure for `Cc1ccc(S(=O)(=O)C(=[N+]=[N-])S(C)(=O)=O)cc1`: 108 to 109 °C; for `COc1ccc(C(=O)N2CCC(N3CCc4ccccc43)c3ccccc32)cc1OC` (stereo unspecified): 121 to 123 °C; for `O=C(O)Cc1ccc(C(=O)c2ccccc2)s1`: 144 °C.
Under `Cc1ccc(O)c(C)c1N(C)C` stands 162 to 165 °C.
Under `CCCCC[C@H]1CC[C@H](CCc2ccc(O)cc2)CC1` stands 102 °C; under `CN(C)C(=O)CC1=C(n2nc(-c3c(-c4ccccc4)nn4ccccc34)ccc2=O)CCCC1`, 80 to 81 °C; under `CCOC(=O)Cc1csc(N=C2SC[C@@H]3Cc4ccccc4CN23)n1`, 105 °C.
Turning to `CCOC(=O)C=C(C)C=CC=C(C)C=Cc1c(Cl)cc(OC)c(Cl)c1Cl`, the melting point was 126 to 128 °C.
For the molecule `CCCCCCC(=NO)C(=O)c1ccc(OC)c2ccccc12`, the melting point fell in the range of 92 to 93 °C.
Under `CCCCCCCCCCCCCCOc1ccc(CC(=O)NCc2ccccn2)cc1` stands 86 to 87 °C; under `CN1CC(c2ccc(Cl)cc2)=NN(c2ccc(Cl)cc2)C1=O`, 174 to 176 °C; under `COc1cc(C(=O)N[C@@H]2CCN(C)C2)ccc1Nc1ncc2c(n1)N(C1CCCCC1)CC(F)(F)C(=O)N2C`, 98 to 99 °C.
The same measure for `CC(c1cc2ccccc2o1)N(O)C(N)=O` (stereo unspecified): 147 to 150 °C; for `Cc1cccc2c1nc(-c1ccccc1[N+](=O)[O-])n2CC(C)O` (stereo unspecified): 171 to 172 °C.
`Cn1c(COc2ccc(CC3SC(=O)NC3=O)cc2)nc2ccc(Oc3ccc(NS(C)(=O)=O)cc3)cc21` (stereo unspecified) gave a melting point of 225 to 226 °C.
The same measure for `CC(C)(C)Nc1c(NCc2cc3cc(C#N)ccc3o2)c(=O)c1=O`: 299 to 300 °C.
Under `CCCCCCCCCCCCCCCCCC(=O)NCC(C)(C)NCC(O)c1cc(Cl)c(N)c(Cl)c1` (stereo unspecified) stands 74 to 76 °C; under `CC1(C)CC(O)C(C)(C)c2cc(/C=C/c3ccc(C(=O)O)cc3)c(Cn3cccn3)cc21` (stereo unspecified), 248 °C; under `COc1ccc(S(=O)(=O)n2ccc3ccnc(-c4cccs4)c32)cc1`, 112 to 114 °C.
For the molecule `Cc1ccc(CN2CCN(c3cc(-c4ccccc4)ccn3)CC2)cc1`, the melting point worked out at 103 °C.
Under `O=[N+]([O-])c1ccc(F)c(-c2ccc(CO)cc2)c1` stands 106 to 108 °C; under `CC(C)SC(=O)Cc1cc(Oc2ccc(C(F)(F)F)cc2Cl)ccc1[N+](=O)[O-]`, 102 to 104 °C.
`CCCCCCCCOc1ccc(C(=O)NNc2nc(NNC(=O)c3ccc(OCCCCCCCC)cc3O)nc(N(CCC)CCC)n2)c(O)c1` gave a melting point of 195 to 196 °C.
Under `CC(=O)NC(Cc1csc2ccccc12)C(=O)C=Cc1cc(C(F)(F)F)cc(C(F)(F)F)c1` (stereo unspecified) stands 172 to 173 °C; under `CCOCc1nc2c(N)nc3cc(OCCCN4CCCC4=O)ccc3c2n1CCCCNC(=O)NC(C)C`, 98 to 101 °C; under `Cc1cc(C(Cl)=NO)ccc1Br`, 77 to 78 °C.
Under `COc1ccc(Oc2cccc(-c3nnc(Nc4ccc(Cl)c(Cl)c4)s3)c2)cc1` stands 198 to 199 °C; under `CCc1nc2ccccc2c(C(=O)OCC(=O)OC(C)(C)C)c1Oc1ccc(-c2ccccc2C#N)cc1`, 83 to 85 °C.
The same measure for `COc1cc(NC(C)=O)ccc1N1CCN(CCCNc2c(C)c(=O)n(C)c(=O)n2C)CC1`: 178 to 180 °C; for `Cc1ncccc1[N+](=O)[O-]`: 29 to 31 °C.
`NC(=O)OCCN1Cc2ccccc2CCO1` gave a melting point of 110 to 111 °C.
Under `COC1(c2ccc(Sc3ccc4c(c3)CCC(=S)N4C)s2)CCOCC1` stands 100 to 102 °C.
`CCOC(=O)CCc1cc(CCC(=O)O)cc(Oc2cccnc2)c1` yielded a melting point of 85 to 87 °C.
The same measure for `Cc1noc(NS(=O)(=O)c2ccccc2-c2ccc(-c3ncco3)cc2Cn2c(=O)oc3ccccc32)c1C`: 130 to 137 °C; for `COCOc1ccc(C(=O)Cn2c(-c3nonc3N)nc3ccccc32)cc1OC`: 190 °C.
The same measure for `Cc1cc(Cl)ccc1NC(=O)NCc1ccc2c(c1)CN(C1CCC(=O)NC1=O)C2=O` (stereo unspecified): 256 to 258 °C.
Under `O=C(Nc1cccc(-c2ccnc3c(C(=O)c4cccs4)cnn23)c1)c1cnccn1` stands 222 to 224 °C; under `CC1CC(c2ccc(OCC(=O)O)c(Cl)c2Cl)=CC(=O)C1C` (stereo unspecified), 151 to 153 °C; under `Nc1c(C(=O)c2cc(F)cc(F)c2)[nH]c2cc(Cl)ccc12`, 149 to 151 °C.
`C#CC1(O)CCC2C3=C(CCC21C)c1ccc(OC)cc1CC3` (stereo unspecified) displayed a melting point of 133 to 137 °C.
Take `Cc1cc(C(=S)N(C)C)ncc1C(c1cc(F)ccc1F)S(=O)(=O)c1ccc(F)cc1` (stereo unspecified): the melting point was 161 to 164 °C.
On to `CN1C(c2ccccc2)CC(=O)CC1c1ccccc1` (stereo unspecified), for which the melting point fell in the range of 147 to 149 °C.
The same measure for `O=C(Nc1nnn[nH]1)c1cc2c(cc1[N+](=O)[O-])OCO2`: 279 °C.
Under `CN1C[C@H](CN2CCN(C(c3ccccc3)c3ccccc3)CC2)C[C@@H]2c3cccc4[nH]c(Br)c(c34)C[C@H]21` stands 255 °C; under `Cc1cccc2cc(C3CCN(C)CC3)[nH]c(=O)c12`, 200 to 202 °C; under `Cc1cc(-n2ccnc2)c2cccc(OCc3c(Cl)ccc(S(=O)(=O)N4CCC[C@H]4C(=O)NCCCNC(=O)c4ccc(C=NN)cc4)c3Cl)c2n1`, 148 °C.
The same measure for `COC(Cc1ccc(I)cc1)c1ccc(I)cc1` (stereo unspecified): 62 to 64 °C; for `Cc1ccc(Cc2cnc(NCCCNc3ncc(Br)cc3C)[nH]c2=O)cn1`: 48 to 51 °C.
Consider `NS(=O)(=O)c1ncccc1C(F)(F)F`, for which the melting point lay within 135 to 140 °C.
Under `COC(=O)C(CO)NC(=O)C(Cc1c[nH]c2ccccc12)NC(=O)OCc1ccccc1` (stereo not drawn) (Cbz-Trp-Ser-OMe; configuration not given here) stands 133 to 135 °C; under `CC=Cc1cccc(C(=O)C=Cc2ccccc2)c1O`, 95 to 98 °C.
The same measure for `CC1=NN=C(c2ccc3ccccc3n2)c2cc3oc(=O)[nH]c3cc2C1`: 304 to 306 °C; for `CCC(CC)Nc1c([N+](=O)[O-])cc(C#N)c(COC)c1[N+](=O)[O-]`: 46 to 49 °C; for `CNS(=O)(=O)c1ccc(Nc2cc(N3CCCC3)cc(-c3ccc(OC(F)(F)F)cc3)n2)cc1`: 83 to 85 °C.
Under `CCOCCn1c(N2CCCN(CCC3(c4ccccn4)CCN(C(=O)c4cc(OC)c(OC)c(OC)c4)C3)CC2)nc2ccccc21` (stereo unspecified) stands 50 to 55 °C; under `NC1=NN(c2ccc(OCc3ccccc3)cc2)CC1`, 148 to 149 °C.
In turn, `COc1cccc([C@H]2O[C@H](CC(=O)NCCc3occc3C(=O)O)C(=O)N(CC(C)(C)CO)c3ccc(Cl)cc32)c1OC` had a melting point of 126 to 129 °C.
